Experimental data from patent US8017606B2, “Quinoline derivatives as antibacterial agents” (Janssen Pharmaceutica NV, priority 2005, dated 2011).
Values after ≈ are worked out from the molar mass of the structure shown. Where a name gives a salt, the structure may show the parent alone.

Tests used:
[1] = tested on: Listeria monocytogenes (ATCC49594); assay: Microtitre plate assay, IC90 determination; assay type: cell-based; details: 90% inhibitory concentration for bacterial growth, 37° C., resazurin fluorescence, read-out: IC90 (μg/ml) LMO 49594
Protocol: (§1) The bacteria used in this study were grown overnight in flasks containing 100 ml Mueller-Hinton Broth (Becton Dickinson—cat. no. 275730) in sterile de-ionized water, with shaking, at 37° C. Stocks (0.5 ml/tube) were stored at −70° C. until use. Bacteria titrations were performed in microtiter plates and colony forming units (CFUs) were determined. In general, an inoculum level of approximately 100 CFUs was used for susceptibility testing.
(§2) Anti Bacterial Susceptibility Testing: IC90 Determination
(§3) Flat-bottom, sterile 96-well plastic microtiter plates were filled with 180 μl of sterile deionized water, supplemented with 0.25% BSA. Subsequently, stock solutions (7.8×final test concentration) of compounds were added in 45 μl volumes in column 2 Serial five-fold dilutions (45 μl in 180 μl) were made directly in the microtiter plates from column 2 to reach column 11. Untreated control samples with (column 1) and without (column 12) inoculum were included in each microtiter plate. Depending on the bacteria type, approximately 10 to 60 CFU per well of bacteria inoculum (100 TCID50), in a volume of 100 μl in 2.8× Mueller-Hinton broth medium, was added to the rows A to H, except column 12. The same volume of broth medium without inoculum was added to column 12 in row A to H. The cultures were incubated at 37° C. for 24 hours under a normal atmosphere (incubator with open air valve and continuous ventilation). At the end of incubation, one day after inoculation, the bacterial growth was quantitated fluorometrically. Therefore resazurin (0.6 mg/ml) was added in a volume of 20 μl to all wells […], and the plates were re-incubated overnight. A change in colour from blue to pink indicated the growth of bacteria.
(§4) The fluorescence was read in a computer-controlled fluorometer (Cytofluor Biosearch) at an excitation wavelength of 530 nm and an emission wavelength of 590 nm. The % growth inhibition achieved by the compounds was calculated according to standard methods. The IC90 (expressed in μg/ml) was defined as the 90% inhibitory concentration for bacterial growth.

[2] = tested on: Pseudomonas aeruginosa (ATCC27853); assay: Microtitre plate assay, IC90 determination; assay type: cell-based; details: 90% inhibitory concentration for bacterial growth, 37° C., resazurin fluorescence, read-out: IC90 (μg/ml) PAE 27853
Protocol: as §1, §2, §3, §4

[3] = tested on: Streptococcus mutans (ATCC33402); assay: Microtitre plate assay, IC90 determination; assay type: cell-based; details: 90% inhibitory concentration for bacterial growth, 37° C., resazurin fluorescence, read-out: IC90 (μg/ml) SMU 33402
Protocol: as §1, §2, §3, §4

[4] = tested on: Streptococcus pyogens (ATCC8668); assay: Microtitre plate assay, IC90 determination; assay type: cell-based; details: 90% inhibitory concentration for bacterial growth, 37° C., resazurin fluorescence, read-out: IC90 (μg/ml) SPY 8668
Protocol: as §1, §2, §3, §4

[5] = tested on: methicilline resistant Staphylococcus aureus (MRSA) (a clinical isolate from the University of Antwerp); assay: Microtitre plate assay, IC90 determination; assay type: cell-based; details: 90% inhibitory concentration for bacterial growth, 37° C., resazurin fluorescence, read-out: IC90 (μg/ml) STA RMETHIC
Protocol: as §1, §2, §3, §4

[6] = tested on: Bacillus subtilis (ATCC43639); assay: Microtitre plate assay, IC90 determination; assay type: cell-based; details: 90% inhibitory concentration for bacterial growth, 37° C., resazurin fluorescence, read-out: IC90 (μg/ml) BSU 43639
Protocol: as §1, §2, §3, §4

[7] = tested on: Streptococcus pneumoniae (ATCC6305); assay: Microtitre plate assay, IC90 determination; assay type: cell-based; details: 90% inhibitory concentration for bacterial growth, 37° C., resazurin fluorescence, read-out: IC90 (μg/ml) SPN 6305
Protocol: as §1, §2, §3, §4

[8] = tested on: Staphylococcus aureus (ATCC25923); assay: Microtitre plate assay, IC90 determination; assay type: cell-based; details: 90% inhibitory concentration for bacterial growth, 37° C., resazurin fluorescence, read-out: IC90 (μg/ml) STA 25923
Protocol: as §1, §2, §3, §4

[9] = tested on: Enterococcus faecalis (ATCC14506); assay: Microtitre plate assay, IC90 determination; assay type: cell-based; details: 90% inhibitory concentration for bacterial growth, 37° C., resazurin fluorescence, read-out: IC90 (μg/ml) EFA 14506
Protocol: as §1, §2, §3, §4

[10] = tested on: Enterococcus faecalis (ATCC29212); assay: Microtitre plate assay, IC90 determination; assay type: cell-based; details: 90% inhibitory concentration for bacterial growth, 37° C., resazurin fluorescence, read-out: IC90 (μg/ml) EFA 29212
Protocol: as §1, §2, §3, §4

[11] = tested on: Staphylococcus aureus (ATCC29213); assay: Microtitre plate assay, IC90 determination; assay type: cell-based; details: 90% inhibitory concentration for bacterial growth, 37° C., resazurin fluorescence, read-out: IC90 (μg/ml) STA 29213
Protocol: as §1, §2, §3, §4

[12] = tested on: Staphylococcus aureus (ATCC43300); assay: Microtitre plate assay, IC90 determination; assay type: cell-based; details: 90% inhibitory concentration for bacterial growth, 37° C., resazurin fluorescence, read-out: IC90 (μg/ml) STA 43300
Protocol: as §1, §2, §3, §4

`CN(C)CCC(O)(c1cc(F)cc(F)c1)c1ccc2nc(-c3cccnc3)cc(-c3ccccc3)c2c1` (centres unmarked) (as salt: salt) [Compound 42] showed a melting point of 151 °C.
Work on `CN(C)CCC(O)(c1cc(F)cc(F)c1)c1cccc2nc(N(C)C)c(-c3ccccc3)cc12` (centres unmarked) (as salt: salt) [Compound 45] yielded a melting point of 136 °C.
With `COc1nc2c(C(O)(CCN(C)C)c3cc(F)cc(F)c3)cc(-c3cccnc3)cc2cc1-c1ccccc1` (centres unmarked) (as salt: salt) [Compound 64] the melting point was 156 °C.
In the case of `COc1nc2cccc(C(O)(CCN(C)C)c3cc(F)cc(F)c3)c2cc1-c1ccccc1` (centres unmarked) [Compound 1], the IC90 [1] is reported as 11.3 µg/mL (≈ 25.2 µM), the IC90 [2] is reported as 11.3 µg/mL (≈ 25.2 µM) and the IC90 [3] is reported as 9 µg/mL (≈ 20.1 µM). The IC90 [4] was 9 µg/mL (≈ 20.1 µM), the IC90 [5] was 11.3 µg/mL (≈ 25.2 µM) and the IC90 [6] was 11.3 µg/mL (≈ 25.2 µM). For the same compound, the IC90 [7] was 11.3 µg/mL (≈ 25.2 µM), the IC90 [8] was 11.3 µg/mL (≈ 25.2 µM) and the IC90 [9] was 11.3 µg/mL (≈ 25.2 µM). For the same compound, the IC90 [10] was 11.3 µg/mL (≈ 25.2 µM) and the IC90 [11] was 11.3 µg/mL (≈ 25.2 µM).
Work on `COc1nc2c(C(O)(CCN(C)C)c3ccccc3)cc(Br)cc2cc1Cc1ccccc1` (centres unmarked) [Compound 8] yielded a melting point of 66 °C, an IC90 [1] of 40.2 µg/mL (≈ 79.5 µM) and an IC90 [2] of 12.7 µg/mL (≈ 25.1 µM). The IC90 [3] was 10.1 µg/mL (≈ 20 µM), the IC90 [4] was 10.1 µg/mL (≈ 20 µM) and the IC90 [5] was 11.3 µg/mL (≈ 22.4 µM). The IC90 [6] was 12.7 µg/mL (≈ 25.1 µM), the IC90 [7] was 11.3 µg/mL (≈ 22.4 µM) and the IC90 [8] was 11.3 µg/mL (≈ 22.4 µM). For the same compound, the IC90 [9] was 11.3 µg/mL (≈ 22.4 µM) and the IC90 [11] was 10.1 µg/mL (≈ 20 µM).
In the case of `COc1nc2c(C(O)(CCN(C)C)c3cccs3)cc(Br)cc2cc1Cc1ccccc1` (centres unmarked) [Compound 10], the IC90 [1] is reported as 10.2 µg/mL (≈ 19.9 µM), the IC90 [12] is reported as 12.9 µg/mL (≈ 25.2 µM) and the IC90 [2] is reported as 12.9 µg/mL (≈ 25.2 µM). It also gave an IC90 [3] of 10.2 µg/mL (≈ 19.9 µM), an IC90 [4] of 10.2 µg/mL (≈ 19.9 µM) and an IC90 [5] of 10.2 µg/mL (≈ 19.9 µM). It also gave an IC90 [7] of 11.5 µg/mL (≈ 22.5 µM), an IC90 [8] of 11.5 µg/mL (≈ 22.5 µM) and an IC90 [10] of 10.2 µg/mL (≈ 19.9 µM). For the same compound, the IC90 [11] was 12.9 µg/mL (≈ 25.2 µM).
For `CN(C)CCC(O)(Cc1c(-c2ccccc2)c(-c2ccccc2)nc2ccccc12)c1cc(F)cc(F)c1` (centres unmarked) [Compound 21], the melting point was 173 °C, the IC90 [1] was 12.8 µg/mL (≈ 25.2 µM) and the IC90 [2] was 12.8 µg/mL (≈ 25.2 µM). For the same compound, the IC90 [4] was 12.8 µg/mL (≈ 25.2 µM), the IC90 [5] was 12.8 µg/mL (≈ 25.2 µM) and the IC90 [6] was 12.8 µg/mL (≈ 25.2 µM). It also gave an IC90 [7] of 12.8 µg/mL (≈ 25.2 µM), an IC90 [8] of 12.8 µg/mL (≈ 25.2 µM) and an IC90 [10] of 12.8 µg/mL (≈ 25.2 µM). The IC90 [11] was 12.8 µg/mL (≈ 25.2 µM).
In the case of `CN(C)CCC(O)(c1cc(F)cc(F)c1)c1cc(Br)cc2cc(-c3ccccc3)c(-n3ccnc3)nc12` (centres unmarked) [Compound 22], the melting point is reported as 136 °C, the IC90 [1] is reported as 14.2 µg/mL (≈ 25.2 µM) and the IC90 [2] is reported as 14.2 µg/mL (≈ 25.2 µM). For the same compound, the IC90 [3] was 11.2 µg/mL (≈ 19.9 µM), the IC90 [4] was 11.2 µg/mL (≈ 19.9 µM) and the IC90 [5] was 14.2 µg/mL (≈ 25.2 µM). It also gave an IC90 [7] of 12.6 µg/mL (≈ 22.4 µM), an IC90 [8] of 12.6 µg/mL (≈ 22.4 µM) and an IC90 [10] of 14.2 µg/mL (≈ 25.2 µM). For the same compound, the IC90 [11] was 14.2 µg/mL (≈ 25.2 µM).
Compound `CN(C)CCC(O)(c1cccc2ccccc12)c1cc(Br)cc2cc(Cc3ccccc3)c(-n3ccnc3)nc12` (centres unmarked) [Compound 24] has an IC90 [1] of 14.9 µg/mL (≈ 25.2 µM), an IC90 [2] of 14.9 µg/mL (≈ 25.2 µM) and an IC90 [3] of 11.8 µg/mL (≈ 19.9 µM). The IC90 [4] was 11.8 µg/mL (≈ 19.9 µM), the IC90 [5] was 14.9 µg/mL (≈ 25.2 µM) and the IC90 [6] was 11.8 µg/mL (≈ 19.9 µM). For the same compound, the IC90 [7] was 14.9 µg/mL (≈ 25.2 µM), the IC90 [8] was 13.2 µg/mL (≈ 22.3 µM) and the IC90 [9] was 11.8 µg/mL (≈ 19.9 µM). The IC90 [10] was 14.9 µg/mL (≈ 25.2 µM) and the IC90 [11] was 11.8 µg/mL (≈ 19.9 µM).
With `CN(C)CCC(O)(c1cccc2ccccc12)c1cc(Br)cc2cc(Cc3ccccc3)c(N3CCN(c4n[nH]c5ccccc45)CC3)nc12` (centres unmarked) [Compound 26] the IC90 [1] was 3.6 µg/mL (≈ 4.96 µM), the IC90 [2] was 2.9 µg/mL (≈ 4 µM) and the IC90 [3] was 2.9 µg/mL (≈ 4 µM). For the same compound, the IC90 [4] was 2.9 µg/mL (≈ 4 µM), the IC90 [5] was 18.2 µg/mL (≈ 25.1 µM) and the IC90 [6] was 14.5 µg/mL (≈ 20 µM). The IC90 [7] was 3.6 µg/mL (≈ 4.96 µM), the IC90 [8] was 7.3 µg/mL (≈ 10.1 µM) and the IC90 [9] was 14.5 µg/mL (≈ 20 µM). The IC90 [10] was 3.6 µg/mL (≈ 4.96 µM) and the IC90 [11] was 16.3 µg/mL (≈ 22.5 µM).
